From US20190328755A1, “METHODS OF TREATING COMPLEX REGIONAL PAIN SYNDROME (CRPS) OR SYMPTOMS COMPRISING ADMINISTRATION OF […]” (GRUNENTHAL GMBH, priority 2018, published 2019)

Test system: subjects with CRPS
Test: Open-label single-arm Phase III trial of intravenous neridronic acid, average pain intensity (11-point NRS)
Assay type: in vivo, human
Settings: subjects with CRPS duration >2 years; 400 mg i.v. cumulative, 4 infusions of 240 min; interim look
Description: A multi-site, open-label, single-arm, Phase III safety trial of intravenous neridronic acid at a cumulative dose of 400 mg was conducted in subjects with CRPS to investigate the safety and tolerability of intravenous neridronic acid in subjects with CRPS.
The trial product was supplied in glass vials, each containing 111.2 mg sodium neridronate hemihydrate (equivalent to 100 mg neridronic acid) in a total volume of 8 mL. For each infusion, before use, the trial product was diluted in sterile normal saline (0.9% NaCl, e.g., United States Pharmacopeia (USP) grade saline for injection) to a volume of approximately 500 mL and administered by slow intravenous infusion (240 minutes [maximum 260 minutes]) at day 1, day 4, day 7 and day 10, resulting in a total dose of 400 mg neridronic acid.
In addition, the trial provided supportive data on efficacy and long-term effectiveness of neridronic acid of 400 mg. Average, worst (both with a 24-hour recall period) and current pain intensity was measured at the trial visits using an 11-point numerical rating scale on a tablet computer.
The trial included an enrollment period lasting up to 60 days, a treatment period consisting of 4 infusions of neridronic acid over 10 days, and a follow-up period of approximately 50 weeks. […]

NCCCCCC(O)(P(=O)(O)O)P(=O)(O)O [neridronic acid]
mean (standard deviation) change from baseline to Day 84 in average pain intensity (NRS): −1.22 (2.197)
